Test results: paper PMC10757017 (Heliyon, 2023)

Assays:
[1] = molecular target: T1, α-glucosidase (Saccharomyces cerevisiae, UniProt P53341); assay: α-Glucosidase inhibitory assay; format: biochemical
[2] = molecular target: T1, α-glucosidase; assay: Kinetic studies; format: biochemical; settings: for type of inhibition: Lineweaver-Burk plots, Km increases, Vmax constant

T1 sequence (P53341 whole entry): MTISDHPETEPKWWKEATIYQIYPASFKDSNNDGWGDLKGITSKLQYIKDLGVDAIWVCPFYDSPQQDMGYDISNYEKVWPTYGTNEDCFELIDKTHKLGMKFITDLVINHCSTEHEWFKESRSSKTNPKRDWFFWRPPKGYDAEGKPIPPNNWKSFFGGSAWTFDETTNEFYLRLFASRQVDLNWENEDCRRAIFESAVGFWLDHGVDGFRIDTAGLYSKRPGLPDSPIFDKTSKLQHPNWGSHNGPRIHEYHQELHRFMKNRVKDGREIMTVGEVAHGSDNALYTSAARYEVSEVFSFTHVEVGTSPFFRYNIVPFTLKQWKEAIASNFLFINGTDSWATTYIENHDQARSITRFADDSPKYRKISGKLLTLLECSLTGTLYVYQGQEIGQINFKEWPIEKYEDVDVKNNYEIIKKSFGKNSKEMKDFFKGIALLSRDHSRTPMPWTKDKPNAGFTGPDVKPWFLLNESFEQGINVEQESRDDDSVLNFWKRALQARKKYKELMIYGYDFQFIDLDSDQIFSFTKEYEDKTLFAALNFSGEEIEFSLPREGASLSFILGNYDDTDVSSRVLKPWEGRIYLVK

IC50 [1] [nM] | Ki [2] [nM] | type of inhibition [2] | SMILES
680 ± 290 | – | – | CN(C)c1ccc(C(=NN=Cc2ccc(O)cc2O)c2ccc(N(C)C)cc2)cc1 [Compound 2, 4-{[bis-(4-dimethylamino-phenyl)-methylene]-hydrazonomethyl}-benzene-1,3-diol]
330 | – | – | CN(C)c1ccc(C(=NN=Cc2cccc(O)c2O)c2ccc(N(C)C)cc2)cc1 [Compound 4, 3-{[bis-(4-dimethylamino-phenyl)-methylene]-hydrazonomethyl}-benzene-1,2-diol]
280 | 2790 ± 11 | competitive | CN(C)c1ccc(C(=NN=Cc2cc([N+](=O)[O-])ccc2O)c2ccc(N(C)C)cc2)cc1 [Compound 8, 2-{[bis-(4-dimethylamino-phenyl)-methylene]-hydrazonomethyl}-4-nitro-phenol]
280 | 3640 ± 12 | competitive | COc1cccc(C=NN=C(c2ccc(N(C)C)cc2)c2ccc(N(C)C)cc2)c1O [Compound 9, 2-{[bis-(4-dimethylamino-phenyl)-methylene]-hydrazonomethyl}-6-methoxy-phenol]
490 ± 1430 | – | – | CN(C)c1ccc(C(=NN=Cc2cccc(C=O)c2)c2ccc(N(C)C)cc2)cc1 [Compound 15, 3-{[bis-(4-dimethylamino-phenyl)-methylene]-hydrazonomethyl}-benzaldehyde]
350 | – | – | CN(C)c1ccc(C(=NN=Cc2ccc(O)c(O)c2)c2ccc(N(C)C)cc2)cc1 [Compound 17, 4-{[bis-(4-dimethylamino-phenyl)-methylene]-hydrazonomethyl}-benzene-1,2-diol]
820 ± 1120 | – | – | CN(C)c1ccc(C(=NN=Cc2ccc(O)cc2)c2ccc(N(C)C)cc2)cc1 [Compound 26, 4-{[bis-(4-dimethylamino-phenyl)-methylene]-hydrazonomethyl}-phenol]
